Values after ≈ are worked out from the molar mass of the structure shown. Where two headings read alike, the source gives them in different places.
Assays:
[1] = test system: P-388; assay: In vitro tumor cell cytotoxicity, three day MTT microtiter assay (P-388); type: cell-based, mouse; settings: for IC50: P388, 72 h, read-out: In vitro tumor cell cytotoxicity (IC50)
Protocol: (§1) A three day microtiter assay was used to measure the growth inhibition of cultured cells exposed to a range of drug concentrations. Metabolic activity was measured by the cells' ability to reduce the tetrazolium dye, MTT (3-(4,5-dimethylthiazol-2-yl-2,5-diphenyltetrazolium bromide) to a quantifiable colored end product, which absorbs at 570 nm in the visible spectrum. Surviving cells reduce the MTT dye.
(§2) Test compounds were dissolved in dimethyl sulfoxide (DMSO) and diluted, first with Earle's Balanced Salt Solution, followed by culture medium, to twice the highest concentration of compound to be tested. From this concentrated stock, two-fold serial dilutions were prepared in 96-well microtiter trays, each well containing twice the desired final concentration of compound. Each concentration was tested in triplicate and compared to triplicate drug-free controls.
(§3) The cells were grown in the same medium used for diluting the compounds and then harvested using trypsinization. This involved removing the medium by aspiration; rinsing the cell monolayer twice with Earle's Balanced Salt Solution; adding trypsin (0.05%)/EDTA (0.53 mM; for each 25 cm^2, approximately 0.2 mL), tilting to cover the monolayer, and then withdrawing trypsin leaving only a thin film of solution; incubating at room temperature until the cell monolayers detached (as determined by visual and/or microscopic observation); adding medium contaiing fetal calf serum to stop the action of the trypsin and resuspend the cells; triturating to aid dissociation of cell clumps; and determining the number of cells per milliliter by electronic cell counter (e.g. Coulter Counter) or by mixing an aliquot of cell suspension with Trypan Blue (0.4% in normal saline) and counting the viable cells using a hemacytometer.
(§4) After harvesting and determination of viable cell counts, cell density was adjusted to 25,000 cells/mL. Inoculum (0.1 mL) containing the cells was then added to each well for a final concentration of 2,500 cells per well. Addition of the inoculum diluted the test compounds to the desired final concentration.
(§5) Microtiter trays were then incubated for three days at 36° C. in a humidified atmosphere containing 5% carbon dioxide. After three days, 20 microtiters of 5 mg/mL MTT in phosphate-buffered saline solution were added to each well. Trays were returned to the incubator for two to four hours to allow the surviving cells to reduce the dye. Medium and unreduced dye were removed by aspiration. DMSO was added to each well to dissolve the water-insoluble, colored end product of the dye reduction so that it could be measured spectrophotometrically at 570 nm.

[2] = test system: A549; assay: In vitro tumor cell cytotoxicity, three day MTT microtiter assay (A549); type: cell-based, human; settings: for IC50: Homo sapiens, read-out: In vitro tumor cell cytotoxicity (IC50)
Protocol: as §1, §2, §3, §4, §5

[3] = P-388 (mouse leukemia), 3 days, MTT, absorbance at 570 nm
[4] = 72 h, A549, 3 days, MTT, absorbance at 570 nm

Structure (SMILES)	IC50 ([1]; Mus musculus) [µg/mL]	IC50 ([2]; A549, 72 h) [µg/mL]	IC50 [1, 3] [µg/mL]	IC50 [2, 4] [µg/mL]	also measured
CC(=O)O[C@@H]1C2=C(C)[C@@H](OC(=O)[C@H](O)[C@@H](NC(=O)NC(C)(C)C)c3ccccc3)C[C@@](O)([C@@H](OC(=O)c3ccccc3)[C@@H]3[C@]4(OC(C)=O)CO[C@@H]4C[C@H](O)[C@@]3(C)[C@H]1O)C2(C)C [Example 30, N-Debenzoyl-N-t-butylcarbamyl-9-dihydrotaxol]	0.017 (≈ 0.02 µM)	0.014 (≈ 0.0165 µM)			
CCC1O[C@H]2C[C@H]3OC[C@@]3(OC(C)=O)[C@H]3[C@H](OC(=O)c4ccccc4)[C@]4(O)C[C@H](OC(=O)[C@H](O)[C@@H](NC(=O)c5ccccc5)c5ccccc5)C(C)=C([C@@H](OC(C)=O)[C@H](O1)[C@]23C)C4(C)C (stereo partly drawn) [Example 11, 9-Dihydrotaxol-7,9-propylidene acetal]	0.022 (≈ 0.0246 µM)	0.023 (≈ 0.0257 µM)			
CC(=O)O[C@@]12CO[C@@H]1C[C@H](O)[C@]1(C)[C@@H]2[C@H](OC(=O)c2ccccc2)[C@]2(O)C[C@H](OC(=O)[C@H](O)[C@@H](NC(=O)c3ccccc3)c3ccccc3)C(C)=C([C@@H](O)[C@@H]1O)C2(C)C [Example 9, 10-Deacetyl-9-dihydrotaxol]					In vitro tumor cell cytotoxicity (IC50) [1, 3]: 0.14 µg/mL; In vitro tumor cell cytotoxicity (IC50) ([2]; A549, 3 days, MTT, absorbance at 570 nm): 0.011 µg/mL
CC(=O)O[C@@H]1C2=C(C)[C@@H](OC(=O)[C@H](O)[C@@H](NC(=O)OC(C)(C)C)c3ccccc3)C[C@@](O)([C@@H](OC(=O)c3ccccc3)[C@@H]3[C@]4(OC(C)=O)CO[C@@H]4C[C@H](O)[C@@]3(C)[C@H]1O)C2(C)C [Example 20, N-Debenzoyl-N-t-butoxycarbonyl-9-dihydrotaxol]			0.0025 (≈ 0.00293 µM)	0.0003 (≈ 0.000352 µM)	
CC(=O)O[C@@H]1C2=C(C)[C@@H](OC(=O)[C@H](O)[C@@H](NC(=O)c3ccccc3)c3ccccc3)C[C@@](O)([C@@H](OC(=O)c3ccccc3)[C@@H]3[C@]4(OC(C)=O)CO[C@@H]4C[C@H](OCCO)[C@@]3(C)[C@H]1O)C2(C)C [Example 18, 9-Dihydrotaxol 7-O-(2-Hydroxyethyl) ether]			0.17 (≈ 0.189 µM)	0.039 (≈ 0.0433 µM)	
CC(=O)O[C@@H]1C2=C(C)[C@@H](OC(=O)[C@H](O)[C@@H](NC(=O)c3ccccc3)c3ccccc3)C[C@@](O)([C@@H](OC(=O)c3ccccc3)[C@@H]3[C@]4(OC(C)=O)CO[C@@H]4C[C@@H]4OC(=S)O[C@@H]1[C@]43C)C2(C)C [Example 14, 9-Dihydrotaxol-7,9-thionocarbonate]	0.035 (≈ 0.039 µM)	0.019 (≈ 0.0212 µM)			
C=CCO[C@H]1C[C@H]2OC[C@@]2(OC(C)=O)[C@H]2[C@H](OC(=O)c3ccccc3)[C@]3(O)C[C@H](OC(=O)[C@H](O)[C@@H](NC(=O)c4ccccc4)c4ccccc4)C(C)=C([C@@H](OC(C)=O)[C@H](O)[C@]12C)C3(C)C [Example 15, 9-Dihydrotaxol-7-O-allyl ether]	0.0053 (≈ 0.00592 µM)	0.001 (≈ 0.00112 µM)			
CC(=O)O[C@@H]1C2=C(C)[C@@H](OC(=O)[C@H](O)[C@@H](NC(=O)c3ccccc3)c3ccccc3)C[C@@](O)([C@@H](OC(=O)c3ccccc3)[C@@H]3[C@]4(OC(C)=O)CO[C@@H]4C[C@H](O)[C@@]3(C)[C@H]1O)C2(C)C [Example 8, 9-Dihydrotaxol]	0.049 (≈ 0.0572 µM)	0.016 (≈ 0.0187 µM)			
CC(=O)O[C@@H]1C2=C(C)[C@@H](OC(=O)[C@H](O)[C@@H](NC(=O)c3ccccc3)c3ccccc3)C[C@@](O)([C@@H](OC(=O)c3ccccc3)[C@@H]3[C@]4(OC(C)=O)CO[C@@H]4C[C@@H]4OC(C)(C)O[C@@H]1[C@]43C)C2(C)C [Example 10, 9-Dihydrotaxol-7,9-isopropylidene ketal]	0.042 (≈ 0.0469 µM)	0.025 (≈ 0.0279 µM)			
CC(=O)O[C@@H]1C2=C(C)[C@@H](OC(=O)[C@H](O)[C@@H](NC(=O)c3ccccc3)c3ccccc3)C[C@@](O)([C@@H](OC(=O)c3ccccc3)[C@@H]3[C@]4(OC(C)=O)CO[C@@H]4C[C@@H]4OC(CC(O)CO)O[C@@H]1[C@]43C)C2(C)C (stereo partly drawn) [Example 13, 9-Dihydrotaxol-7,9-(3,4-dihydroxy)butylidene acetal]	0.18 (≈ 0.191 µM)	0.3 (≈ 0.318 µM)			
CC(=O)O[C@@H]1C2=C(C)[C@@H](OC(=O)[C@H](O)[C@@H](NC(=O)C(C)(C)C)c3ccccc3)C[C@@](O)([C@@H](OC(=O)c3ccccc3)[C@@H]3[C@]4(OC(C)=O)CO[C@@H]4C[C@H](O)[C@@]3(C)[C@H]1O)C2(C)C [Example 28, N-Debenzoyl-N-pivaloyl-9-dihydrotaxol]			0.083 (≈ 0.0993 µM)	0.11 (≈ 0.132 µM)	
CC(=O)O[C@@H]1C2=C(C)[C@@H](OC(=O)[C@H](O)[C@@H](NC(=O)OCc3ccccc3)c3ccccc3)C[C@@](O)([C@@H](OC(=O)c3ccccc3)[C@@H]3[C@]4(OC(C)=O)CO[C@@H]4C[C@H](O)[C@@]3(C)[C@H]1O)C2(C)C [Example 26, N-Debenzoyl-N-benzyloxycarbonyl-9-dihydrotaxol]	0.057 (≈ 0.0643 µM)	0.031 (≈ 0.035 µM)			
CC(=O)O[C@@H]1C2=C(C)[C@@H](OC(=O)[C@H](O)[C@@H](NC(=O)CC(C)(C)C)c3ccccc3)C[C@@](O)([C@@H](OC(=O)c3ccccc3)[C@@H]3[C@]4(OC(C)=O)CO[C@@H]4C[C@H](O)[C@@]3(C)[C@H]1O)C2(C)C [Example 22, N-Debenzoyl-N-t-butylacetyl-9-dihydrotaxol]			0.052 (≈ 0.0612 µM)	0.027 (≈ 0.0318 µM)	
CC(=O)O[C@@]12CO[C@@H]1C[C@H](O)[C@]1(C)[C@@H]2[C@H](OC(=O)c2ccccc2)[C@]2(O)C[C@H](OC(=O)[C@H](O)[C@@H](NC(=O)OC(C)(C)C)c3ccccc3)C(C)=C([C@@H](O)[C@@H]1O)C2(C)C [Example 21, 10-Deacetyl-N-debenzoyl-N-t-butoxycarbonyl-9-dihydrotaxol]			0.0028 (≈ 0.00346 µM)	0.00026 (≈ 0.000321 µM)	
CC(=O)O[C@@H]1C2=C(C)[C@@H](OC(=O)[C@H](O)[C@@H](NC(=O)c3ccccc3)c3ccccc3)C[C@@](O)([C@@H](OC(=O)c3ccccc3)[C@@H]3[C@]4(OC(C)=O)CO[C@@H]4C[C@@H]4OC(c5ccccc5)O[C@@H]1[C@]43C)C2(C)C (stereo partly drawn) [Example 12, 9-Dihydrotaxol-7,9-benzylidene acetal]			1 (≈ 1.06 µM)	1 (≈ 1.06 µM)	
CC(=O)O[C@@H]1C2=C(C)[C@@H](OC(=O)[C@H](O)[C@@H](NC(=O)OCC(C)C)c3ccccc3)C[C@@](O)([C@@H](OC(=O)c3ccccc3)[C@@H]3[C@]4(OC(C)=O)CO[C@@H]4C[C@H](O)[C@@]3(C)[C@H]1O)C2(C)C [Example 23, N-Debenzoyl-N-isobutoxycarbonyl-9-dihydrotaxol]	0.028 (≈ 0.0329 µM)	0.0043 (≈ 0.00505 µM)			
CC(=O)N[C@@H](c1ccccc1)[C@@H](O)C(=O)O[C@H]1C[C@@]2(O)[C@@H](OC(=O)c3ccccc3)[C@@H]3[C@]4(OC(C)=O)CO[C@@H]4C[C@H](O)[C@@]3(C)[C@@H](O)[C@H](OC(C)=O)C(=C1C)C2(C)C [Example 29, N-Debenzoyl-N-acetyl-9-dihydrotaxol]			2.02 (≈ 2.54 µM)	2.1 (≈ 2.65 µM)	
CC(=O)O[C@@H]1C2=C(C)[C@@H](OC(=O)[C@H](O)[C@@H](NC(=O)OC(C)C)c3ccccc3)C[C@@](O)([C@@H](OC(=O)c3ccccc3)[C@@H]3[C@]4(OC(C)=O)CO[C@@H]4C[C@H](O)[C@@]3(C)[C@H]1O)C2(C)C [Example 25, N-Debenzoyl-N-isopropoxycarbonyl-9-dihydrotaxol]			0.0092 (≈ 0.011 µM)	0.0012 (≈ 0.00143 µM)	
CC(=O)O[C@@H]1C2=C(C)[C@@H](OC(=O)[C@H](O)[C@@H](NC(=O)OC34CC5CC(CC(C5)C3)C4)c3ccccc3)C[C@@](O)([C@@H](OC(=O)c3ccccc3)[C@@H]3[C@]4(OC(C)=O)CO[C@@H]4C[C@H](O)[C@@]3(C)[C@H]1O)C2(C)C [Example 24, N-Debenzoyl-N-adamantoxycarbonyl-9-dihydrotaxol]	0.01 (≈ 0.0108 µM)	0.0043 (≈ 0.00462 µM)			
CC(=O)OCCO[C@H]1C[C@H]2OC[C@@]2(OC(C)=O)[C@H]2[C@H](OC(=O)c3ccccc3)[C@]3(O)C[C@H](OC(=O)[C@H](O)[C@@H](NC(=O)c4ccccc4)c4ccccc4)C(C)=C([C@@H](OC(C)=O)[C@H](O)[C@]12C)C3(C)C [Example 19, 9-Dihydrotaxol 7-O-(2-Acetoxyethyl) ether]			0.079 (≈ 0.0839 µM)	0.12 (≈ 0.127 µM)	
CCN(CC)CCO[C@H]1C[C@H]2OC[C@@]2(OC(C)=O)[C@H]2[C@H](OC(=O)c3ccccc3)[C@]3(O)C[C@H](OC(=O)[C@H](O)[C@@H](NC(=O)c4ccccc4)c4ccccc4)C(C)=C([C@@H](OC(C)=O)[C@H](O)[C@]12C)C3(C)C [Example 17]	0.31 (≈ 0.325 µM)	0.4 (≈ 0.419 µM)			

Source: patent US5594157A, “Process for making taxol derivatives” (Abbott Laboratories, priority 1995, dated 1997)
